The text below walks through data of ChEMBL document CHEMBL1136842, “5-Nitrofuran-2-yl derivatives: synthesis and inhibitory activities against growing and dormant mycobacterium species” (Bioorg Med Chem Lett, 2009).

In this experiment the test system is Mycobacterium tuberculosis variant microti. The experiment can be described thus: Antimycobacterial activity against Mycobacterium microti MTCC 1727 by agar dilution method. The class given is functional. Background: Agar dilution tests growth on a series of plates holding different concentrations.

Converted amounts (≈) assume the structure as drawn.

Broadly, the MIC is the least concentration at which growth counts as inhibited. With `O=[N+]([O-])c1ccc(/C=N/NC(=S)Nc2ncc(Br)cc2Br)o1`, the MIC amounted to 6.9 µM (≈ 3.1 µg/mL).

Take `O=[N+]([O-])c1ccc(/C=N/NC(=S)Nc2ccc(Cl)cc2)o1`: the MIC was 38.4 µM (≈ 12.5 µg/mL).

As for `Cc1cccnc1NC(=S)N/N=C/c1ccc([N+](=O)[O-])o1`, the MIC was 10.2 µM (≈ 3.11 µg/mL).

`CCc1cccc(CC)c1NC(=S)N/N=C/c1ccc([N+](=O)[O-])o1` had an MIC of 72.1 µM (≈ 25 µg/mL).

Regarding `O=[N+]([O-])c1ccc(/C=N/NC(=S)Nc2ccccc2)o1`, the MIC came out at 86.1 µM (≈ 25 µg/mL).

The molecule `Cc1ccnc(NC(=S)N/N=C/c2ccc([N+](=O)[O-])o2)c1` registered an MIC of 20.5 µM (≈ 6.26 µg/mL).

The molecule `Cc1ccc(NC(=S)N/N=C/c2ccc([N+](=O)[O-])o2)cc1` returned an MIC of 20.5 µM (≈ 6.24 µg/mL).

Take `O=[N+]([O-])c1ccc(/C=N/NC(=S)Nc2ccccc2Br)o1`: the lowest concentration to inhibit growth (MIC) was 67.1 µM (≈ 24.8 µg/mL).

In turn, `Cc1ccc(NC(=S)N/N=C/c2ccc([N+](=O)[O-])o2)c(C)c1` gave an MIC of 78.5 µM (≈ 25 µg/mL).

Turning to `Cc1cccc(C)c1NC(=S)N/N=C/c1ccc([N+](=O)[O-])o1`, the MIC turned out to be 78.5 µM (≈ 25 µg/mL).

For the molecule `Cc1cc(C)nc(NC(=S)N/N=C/c2ccc([N+](=O)[O-])o2)c1`, inhibition of growth (MIC) required 39.1 µM (≈ 12.5 µg/mL).

Consider `Cc1ccc(C)c(NC(=S)N/N=C/c2ccc([N+](=O)[O-])o2)c1`, for which the MIC turned out to be 157 µM (≈ 50 µg/mL).

The molecule `O=[N+]([O-])c1ccc(/C=N/NC(=S)Nc2ccccn2)o1` came in with an MIC of 48.4 µM (≈ 14.1 µg/mL).

In turn, `O=[N+]([O-])c1ccc(/C=N/NC(=S)Nc2ccc(Cl)cn2)o1` registered an MIC of 38.3 µM (≈ 12.5 µg/mL).

The molecule `COc1ccc(NC(=S)N/N=C/c2ccc([N+](=O)[O-])o2)c(OC)c1` came in with an MIC of 17.8 µM (≈ 6.24 µg/mL).

Turning to `COc1ccc(NC(=S)N/N=C/c2ccc([N+](=O)[O-])o2)cc1`, the MIC was 78 µM (≈ 25 µg/mL).

`NS(=O)(=O)c1ccc(NC(=S)N/N=C/c2ccc([N+](=O)[O-])o2)cc1` registered an MIC of 67.6 µM (≈ 25 µg/mL).

As for `O=C(O)c1cn(C2CC2)c2cc(N3CCNCC3)c(F)cc2c1=O` [CIPROFLOXACIN], the MIC turned out to be 2.35 µM (≈ 0.779 µg/mL).

`NNC(=O)c1ccncc1` [ISONIAZID]: 22.8 µM (≈ 3.13 µg/mL) was the least that counted as inhibitory (MIC).

As to `CO[C@H]1/C=C/O[C@@]2(C)Oc3c(C)c(O)c4c(O)c(c(/C=N/N5CCN(C)CC5)c(O)c4c3C2=O)NC(=O)/C(C)=C\C=C\[C@H](C)[C@H](O)[C@@H](C)[C@@H](O)[C@@H](C)[C@H](OC(C)=O)[C@@H]1C` [RIFAMPIN], the MIC came out at 30.4 µM (≈ 25 µg/mL).
